Tests used:
human TLR7 = target: T1, human TLR7 (Homo sapiens, UniProt Q9NYK1); test: HEK293-Blue-hTLR-7 cells assay; type: cell-based; conditions: HEK293-Blue-hTLR7 cells, R848 stimulation, 20 hrs, SEAP reporter; read-out: HEK/hTLR7 IC50
T1 construct: host or cells: HEK293 (HEK-Blue hTLR7)
T1 sequence (Q9NYK1 27-1049): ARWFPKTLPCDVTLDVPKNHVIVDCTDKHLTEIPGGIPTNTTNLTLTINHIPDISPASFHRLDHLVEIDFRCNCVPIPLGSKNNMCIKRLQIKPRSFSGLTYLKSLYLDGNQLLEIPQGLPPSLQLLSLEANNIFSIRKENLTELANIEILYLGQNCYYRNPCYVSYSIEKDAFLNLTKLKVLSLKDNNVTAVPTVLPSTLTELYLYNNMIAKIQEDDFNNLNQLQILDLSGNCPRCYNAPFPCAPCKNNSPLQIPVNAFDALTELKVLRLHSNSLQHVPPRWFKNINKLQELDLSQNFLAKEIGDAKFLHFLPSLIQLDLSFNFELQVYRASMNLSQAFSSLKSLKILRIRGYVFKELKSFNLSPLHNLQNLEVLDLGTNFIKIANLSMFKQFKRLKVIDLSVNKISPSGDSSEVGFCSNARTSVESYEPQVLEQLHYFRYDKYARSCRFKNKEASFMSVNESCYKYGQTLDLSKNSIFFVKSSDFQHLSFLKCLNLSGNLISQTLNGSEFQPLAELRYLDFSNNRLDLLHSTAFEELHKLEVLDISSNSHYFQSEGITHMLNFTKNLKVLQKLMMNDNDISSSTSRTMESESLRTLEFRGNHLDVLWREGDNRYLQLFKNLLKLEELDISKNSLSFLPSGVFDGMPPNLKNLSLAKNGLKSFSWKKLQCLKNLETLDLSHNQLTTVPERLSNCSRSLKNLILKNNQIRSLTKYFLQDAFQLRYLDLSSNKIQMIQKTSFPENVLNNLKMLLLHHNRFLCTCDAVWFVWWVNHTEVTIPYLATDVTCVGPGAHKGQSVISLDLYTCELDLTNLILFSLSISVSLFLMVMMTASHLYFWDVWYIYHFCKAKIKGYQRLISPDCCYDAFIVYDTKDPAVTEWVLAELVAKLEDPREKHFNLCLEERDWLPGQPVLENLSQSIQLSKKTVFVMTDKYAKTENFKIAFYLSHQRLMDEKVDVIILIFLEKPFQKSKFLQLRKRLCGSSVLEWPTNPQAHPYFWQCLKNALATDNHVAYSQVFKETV
From the text: HEK293-Blue-hTLR-7 Cells Assay:
A stable HEK293-Blue-hTLR-7 cell line was purchased from InvivoGen (Cat. #: hkb-htlr7, San Diego, Calif., USA). These cells were originally designed for studying the stimulation of human TLR7 by monitoring the activation of NF-κB. A SEAP (secreted embryonic alkaline phosphatase) reporter gene was placed under the control of the IFN-β minimal promoter fused to five NF-κB and AP-1-binding sites. The SEAP was induced by activating NF-κB and AP-1 via stimulating HEK-Blue hTLR7 cells with TLR7 ligands. Therefore the reporter expression was declined by TLR7 antagonist under the stimulation of a ligand, such as R848 (Resiquimod), for incubation of 20 hrs. The cell culture supernatant SEAP reporter activity was determined using QUANTI-Blue™ kit (Cat. #: rep-qbl, Invivogen, San Diego, Ca, USA) at a wavelength of 640 nm, a detection medium that turns purple or blue in the presence of alkaline phosphatase.
HEK293-Blue-hTLR7 cells were incubated at a density of 250,000˜450,000 cells/mL in a volume of 170 μL in a 96-well plate in Dulbecco's Modified Eagle's medium (DMEM) containing 4.5 g/L glucose, 50 U/mL penicillin, […], […], 2 mM L-glutamine, 10% (v/v) heat-inactivated fetal bovine serum with addition of 20 μL test compound in a serial dilution in the presence of final DMSO at 1% and 10 μL of 20 uM R848 in above DMEM, perform incubation under 37° C. in a CO2 incubator for 20 hrs. Then 20 μL of the supernatant from each well was incubated with 180 μL Quanti-blue substrate solution at 37° C. for 2 hrs and the absorbance was read at 620-655 nm using a spectrophotometer. The signaling pathway that TLR7 activation leads to downstream NF-κB activation has been widely accepted, and therefore similar reporter assay was modified for evaluating TLR7 antagonist.

[1] = Human microsomal stability assay; type: in vitro ADME; conditions: human liver microsomes, 1 μM test compound, 0.5 mg/mL protein, 37° C., pH 7.4
Description: Human Microsomal Stability Assay
Human liver microsomes (Cat.NO.: 452117, Corning, USA) were preincubated with test compound for 10 minutes at 37° C. in 100 mM potassium phosphate buffer, pH 7.4. The reactions were initiated by adding NADPH regenerating system. The final incubation mixtures contained 1 μM test compound, 0.5 mg/mL liver microsomal protein, 1 mM MgCl2, 1 mM NADP, 1 unit/mL isocitric dehydrogenase and 6 mM isocitric acid in 100 mM potassium phosphate buffer, pH 7.4. After incubation times of 0, 3, 6, 9, 15 and 30 minutes at 37° C., 300 μL of cold ACN (including internal standard) was added to 100 μL incubation mixture to terminate the reaction. Following precipitation and centrifugation, 100 uL supernatant will be taken out and added 300 uL water. The amount of compound remaining in the samples was determined by LC-MS/MS. Controls of no NADPH regenerating system at zero and 30 minutes were also prepared and analyzed. The results were categorized as: low (7.0 mL/min/kg), medium (7.0-16.2 mL/min/kg) and high (16.2-23.2 mL/min/kg).

IC50 (human TLR7) | CL (h) [1] | Compound
1.7 nM | 6.2 mL/min/kg | [2H]c1ccc2c(N3C[C@@H](C)N4Cc5nc(N6C[C@@H]7C[C@H]6CN7)ccc5[C@H]4C3)ccc(C#N)c2n1 [Example 16, 2-Deuterio-5-[(2S,6R)-11-[(1S,4S)-2,5-diazabicyclo[2.2.1]heptan-2-yl]-6-methyl-4,7,10-triazatricyclo[7.4.0.02,7]trideca-1(9),10,12-trien-4-yl]quinoline-8-carbonitrile]
2.6 nM |  | [2H]c1ccc2c(N3C[C@@H](C)N4Cc5nc(N6CC[C@@H](OC)[C@H](N)C6)ccc5[C@H]4C3)ccc(C#N)c2n1 [Example 15, 5-[(2S,6R)-11-[(3R,4R)-3-amino-4-methoxy-1-piperidyl]-6-methyl-4,7,10-triazatricyclo[7.4.0.02,7]trideca-1(9),10,12-trien-4-yl]-2-deuterio-quinoline-8-carbonitrile]
14.8 nM | 8.4 mL/min/kg | N#Cc1ccc(N2CCN3Cc4nc(N5CCNCC5)ccc4[C@@H]3C2)c2cccnc12 [Example 3A, 5-[(2R)-11-piperazin-1-yl-4,7,10-triazatricyclo[7.4.0.02,7]trideca-1(9),10,12-trien-4-yl]quinoline-8-carbonitrile]
1 nM | 6.2 mL/min/kg | [2H]c1ccc2c(N3C[C@@H](C)N4Cc5nc(OC6CCNCC6)ccc5[C@H]4C3)ccc(C#N)c2n1 [Example 24, 2-Deuterio-5-[(2S,6R)-6-methyl-11-(4-piperidyloxy)-4,7,10-triazatricyclo[7.4.0.02,7]trideca-1(9),10,12-trien-4-yl]quinoline-8-carbonitrile]
0.9 nM | 8.1 mL/min/kg | C[C@@H]1CN(c2ccc(C#N)c3ncccc23)C[C@@H]2c3ccc(N4CCNCC4)nc3CN12 [Example 5, 5-[(2S,6R)-6-methyl-11-piperazin-1-yl-4,7,10-triazatricyclo[7.4.0.02,7]trideca-1(9),10,12-trien-4-yl]quinoline-8-carbonitrile]
6.5 nM | 6.2 mL/min/kg | [2H]c1ccc2c(N3C[C@@H](C)N4Cc5nc(N6CCC7(CNC7)C6)ccc5[C@H]4C3)ccc(C#N)c2n1 [Example 9, 2-Deuterio-5-[(2S,6R)-11-(2,6-diazaspiro[3.4]octan-6-yl)-6-methyl-4,7,10-triazatricyclo[7.4.0.02,7]trideca-1(9),10,12-trien-4-yl]quinoline-8-carbonitrile]
3.4 nM |  | [2H]c1ccc2c(N3C[C@@H](C)N4Cc5nc(N6CC[C@H](OC)[C@@H](N)C6)ccc5[C@H]4C3)ccc(C#N)c2n1 [Example 14, 5-[(2S,6R)-11-[(3S,4S)-3-amino-4-methoxy-1-piperidyl]-6-methyl-4,7,10-triazatricyclo[7.4.0.02,7]trideca-1(9),10,12-trien-4-yl]-2-deuterio-quinoline-8-carbonitrile]
3.7 nM | 7.1 mL/min/kg | [2H]c1ccc2c(N3C[C@@H](C)N4Cc5nc(N6CC[C@@H](N)[C@H](OC)C6)ccc5[C@H]4C3)ccc(C#N)c2n1 [Example 11, 5-[(2S,6R)-11-[(3R,4R)-4-amino-3-methoxy-1-piperidyl]-6-methyl-4,7,10-triazatricyclo[7.4.0.02,7]trideca-1(9),10,12-trien-4-yl]-2-deuterio-quinoline-8-carbonitrile]
2 nM |  | C[C@@H]1CN(c2ccc(C#N)c3ncccc23)C[C@@H]2c3ccc(N4CCCNCC4)nc3CN12 [Example 20, 5-[(2S,6R)-11-(1,4-diazepan-1-yl)-6-methyl-4,7,10-triazatricyclo[7.4.0.02,7]trideca-1(9),10,12-trien-4-yl]quinoline-8-carbonitrile]
1.9 nM |  | [2H]c1ccc2c(N3C[C@@H](C)N4Cc5nc(N6CC[C@H]7CNC[C@H]76)ccc5[C@H]4C3)ccc(C#N)c2n1 [Example 10, 5-[(2S,6R)-11-[(3aS,6aS)-3,3a,4,5,6,6a-hexahydro-2H-pyrrolo[2,3-c]pyrrol-1-yl]-6-methyl-4,7,10-triazatricyclo[7.4.0.02,7]trideca-1(9),10,12-trien-4-yl]-2-deuterio-quinoline-8-carbonitrile]
2.7 nM |  | [2H]c1ccc2c(N3C[C@@H](C)N4Cc5nc(N6C[C@H]7C[C@@H]6CN7)ccc5[C@H]4C3)ccc(C#N)c2n1 [Example 17, 2-Deuterio-5-[(2S,6R)-11-[(1R,4R)-2,5-diazabicyclo[2.2.1]heptan-2-yl]-6-methyl-4,7,10-triazatricyclo[7.4.0.02,7]trideca-1(9),10,12-trien-4-yl]quinoline-8-carbonitrile]
1.1 nM |  | [2H]c1ccc2c(N3C[C@@H](C)N4Cc5nc(N6CCC(C)(N)CC6)ccc5[C@H]4C3)ccc(C#N)c2n1 [Example 19, 5-[(2S,6R)-11-(4-amino-4-methyl-1-piperidyl)-6-methyl-4,7,10-triazatricyclo[7.4.0.02,7]trideca-1(9),10,12-trien-4-yl]-2-deuterio-quinoline-8-carbonitrile]
1.6 nM |  | [2H]c1ccc2c(N3C[C@@H](C)N4Cc5nc(N6CC[C@H](N)[C@@H](OC)C6)ccc5[C@H]4C3)ccc(C#N)c2n1 [Example 12, 5-[(2S,6R)-11-[(3S,4S)-4-amino-3-methoxy-1-piperidyl]-6-methyl-4,7,10-triazatricyclo[7.4.0.02,7]trideca-1(9),10,12-trien-4-yl]-2-deuterio-quinoline-8-carbonitrile]
1.3 nM |  | [2H]c1ccc2c(N3C[C@@H](C)N4Cc5nc(N6CCC7(CC6)CNCCO7)ccc5[C@H]4C3)ccc(C#N)c2n1 [Example 18, 2-Deuterio-5-[(2S,6R)-6-methyl-11-(1-oxa-4,9-diazaspiro[5.5]undecan-9-yl)-4,7,10-triazatricyclo[7.4.0.02,7]trideca-1(9),10,12-trien-4-yl]quinoline-8-carbonitrile]
1 nM |  | [2H]c1ccc2c(N3C[C@@H](C)N4Cc5nc(O[C@H]6CCNC6)ccc5[C@H]4C3)ccc(C#N)c2n1 [Example 25, 2-Deuterio-5-[(2S,6R)-6-methyl-11-[(3S)-pyrrolidin-3-yl]oxy-4,7,10-triazatricyclo[7.4.0.02,7]trideca-1(9),10,12-trien-4-yl]quinoline-8-carbonitrile]

From US12503471B2, “Triazatricycle compounds for the treatment of autoimmune disease” (Hoffmann-La Roche Inc., priority 2019, dated 2025)
